Assay results reported in patent publication US20200000755A1, “TREATMENT OF INFLAMMATORY DISORDERS IN NON-HUMAN MAMMALS” (THE REGENTS OF THE UNIVERSITY OF CALIFORNIA, priority 2012, published 2020).
pIC50: −log10 of the molar value.

Columns and labels:
sEH = target: T1, sEH (Homo sapiens, UniProt P34913); assay: Activity as inhibitor of sEH (general statements); assay type: biochemical
T1 sequence (P34913 1-555): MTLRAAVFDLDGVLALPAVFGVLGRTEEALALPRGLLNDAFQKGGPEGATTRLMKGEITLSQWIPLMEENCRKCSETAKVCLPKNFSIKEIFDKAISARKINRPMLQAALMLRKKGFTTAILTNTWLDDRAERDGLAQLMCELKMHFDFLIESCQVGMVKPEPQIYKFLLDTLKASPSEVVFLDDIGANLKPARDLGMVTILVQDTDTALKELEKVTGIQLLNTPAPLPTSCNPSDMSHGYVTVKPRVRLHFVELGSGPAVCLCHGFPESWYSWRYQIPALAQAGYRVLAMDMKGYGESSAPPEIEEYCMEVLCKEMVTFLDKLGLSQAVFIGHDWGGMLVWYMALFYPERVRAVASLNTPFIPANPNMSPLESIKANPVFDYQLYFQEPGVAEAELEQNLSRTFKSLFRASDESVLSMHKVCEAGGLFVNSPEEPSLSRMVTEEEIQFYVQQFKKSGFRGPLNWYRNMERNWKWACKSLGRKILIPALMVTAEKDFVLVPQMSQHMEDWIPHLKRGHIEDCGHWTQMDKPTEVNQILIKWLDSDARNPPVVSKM
Excerpt: Derivatives of urea are transition state mimetics that form a preferred group of sEH inhibitors. […] Any particular urea derivative or other compound can be easily tested for its ability to inhibit sEH by standard assays, such as those discussed herein. The production and testing of urea and carbamate derivatives as sEH inhibitors is set forth in detail in, for example, Morisseau et al., Proc Natl Acad Sci (USA) 96:8849-8854 (1999).
One category of these inhibitors comprises inhibitors that mimic the substrate for the enzyme. The lipid alkoxides (e.g., the 9-methoxide of stearic acid) are an exemplar of this group of inhibitors.

COX-1 and COX-2 = details: cited from earlier work
Sheep sEH = Sheep sEH (Ovis aries, UniProt A0ACI6PZ20); assay: sEH inhibitor screen of domestic animals, radioactive assay, liver cytosolic preparation; assay type: biochemical
[1] = Thoroughbred, horse, in vivo, iv, 0.1 mg/kg
[2] = horse, in vivo, iv, 0.1 mg/kg, 5 days
Canine sEH = target: T2, Canine sEH (Canis lupus familiaris, UniProt A0A8I3NJL8); assay: sEH inhibitor screen of canine sEH; assay type: biochemical
T2 sequence (A0A8I3NJL8 1-556): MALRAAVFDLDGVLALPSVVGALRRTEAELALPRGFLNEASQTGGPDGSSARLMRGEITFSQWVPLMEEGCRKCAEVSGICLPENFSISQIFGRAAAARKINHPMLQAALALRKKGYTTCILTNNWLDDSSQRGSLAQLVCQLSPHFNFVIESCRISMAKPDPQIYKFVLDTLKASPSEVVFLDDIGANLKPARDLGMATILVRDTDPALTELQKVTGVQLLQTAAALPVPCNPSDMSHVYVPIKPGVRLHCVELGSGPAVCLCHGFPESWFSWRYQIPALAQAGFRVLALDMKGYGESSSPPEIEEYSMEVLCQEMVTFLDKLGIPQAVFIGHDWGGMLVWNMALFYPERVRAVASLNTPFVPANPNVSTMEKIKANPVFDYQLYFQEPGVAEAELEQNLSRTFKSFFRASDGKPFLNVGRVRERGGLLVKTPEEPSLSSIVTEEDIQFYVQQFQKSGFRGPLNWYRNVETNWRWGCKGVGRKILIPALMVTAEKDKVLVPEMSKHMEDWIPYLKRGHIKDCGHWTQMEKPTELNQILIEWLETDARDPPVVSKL

[3] = Plasma concentrations and pharmacokinetics in the laminitic horse; details: phenylbutazone 3-4 mg/kg BID PO, gabapentin 20 mg/kg BID PO

Sequence of Sheep sEH (A0ACI6PZ20 entry or part of it): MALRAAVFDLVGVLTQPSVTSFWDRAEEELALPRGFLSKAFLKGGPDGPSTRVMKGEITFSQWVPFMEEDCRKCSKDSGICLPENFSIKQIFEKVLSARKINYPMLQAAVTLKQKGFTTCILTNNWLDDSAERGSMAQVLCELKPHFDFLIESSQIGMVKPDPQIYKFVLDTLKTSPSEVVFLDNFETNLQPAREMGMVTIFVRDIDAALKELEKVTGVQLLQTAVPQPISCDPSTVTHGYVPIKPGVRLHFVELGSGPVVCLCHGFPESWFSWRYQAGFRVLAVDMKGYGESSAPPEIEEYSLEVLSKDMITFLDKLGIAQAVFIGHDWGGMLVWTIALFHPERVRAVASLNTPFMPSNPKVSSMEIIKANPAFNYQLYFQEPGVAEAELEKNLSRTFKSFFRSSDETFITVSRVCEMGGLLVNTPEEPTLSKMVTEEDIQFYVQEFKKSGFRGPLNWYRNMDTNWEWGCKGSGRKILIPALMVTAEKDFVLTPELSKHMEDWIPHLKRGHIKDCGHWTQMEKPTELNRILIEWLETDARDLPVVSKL

CCCCCCCCCCCCNC(=O)NC12CC3CC(CC(C3)C1)C2 [ADU, N-Adamantyl-N′-dodecyl urea]
activity on sEH (sEH): particularly high activity on sEH

CC(=O)Oc1ccccc1C(=O)O [Aspirin]
COX-2 (IC50)/COX-1 (IC50) ratio (COX-1 and COX-2): 0.32

CS(=O)(=O)N1CCC(NC(=O)Nc2ccc(OC(F)(F)F)cc2)CC1 [compound 1709, 1-(1-methylsulfonyl-piperidin-4-yl)-3-(4-trifluoromethoxy-phenyl)-urea]
pIC50 (Sheep sEH): 7.52

O=C(Nc1ccc(OC(F)(F)F)cc1)N[C@H]1CC[C@H](Oc2ccc(C(=O)O)cc2)CC1 [compound 1728, trans-4-{4-[3-(4-Trifluoromethoxy-phenyl)-ureido]-cyclohexyloxy}-benzoic acid]
daily plasma concentration, peak (did not reach) [1]: < 2.5 µM | daily plasma concentration, trough (fell below on one occasion in the first day) [1]: below 30 nM | adverse effects in clinical exams and blood work [2]: No adverse effects were observed

CCS(=O)(=O)N1CCC(NC(=O)Nc2ccc(OC(F)(F)F)cc2)CC1 [compound 2213, 1-(1-ethylsulfonyl-piperidin-4-yl)-3-(4-trifluoromethoxy-phenyl)-urea]
pIC50 (Sheep sEH): 7.48

O=C(Nc1ccc(OC(F)(F)F)cc1)NC1CCN(C(=O)C2CC2)CC1 [compound 2214, 1-(1-(cyclopropanecarbonyl)piperidin-4-yl)-3-(4-(trifluoromethoxy)phenyl)urea]
pIC50 (Sheep sEH): 7.74

CS(=O)(=O)NC(=O)c1ccc(O[C@H]2CC[C@H](NC(=O)Nc3ccc(OC(F)(F)F)cc3)CC2)cc1 [compound 2728, N-(methylsulfonyl)-4-(trans-4-(3-(4-trifluoromethoxy-phenyl)-ureido)-cyclohexyloxy)-benzamide]
pIC50 (Canine sEH): 7.00

O=C(Nc1ccccc1F)N[C@H]1CC[C@H](Oc2ccc(C(=O)O)cc2)CC1 [compound 2736, 4-(trans-4-(3-(2-fluorophenyl)-ureido)-cyclohexyloxy)-benzoic acid]
pIC50 (Canine sEH): 7.41

Cc1oc(=O)oc1COC(=O)c1ccc(O[C@H]2CC[C@H](NC(=O)Nc3ccc(OC(F)(F)F)cc3)CC2)cc1 [compound 2796, (5-methyl-2-oxo-1,3-dioxol-4-yl)methyl 4-((1r,4r)-4-(3-(4-(trifluoromethoxy)-phenyl)-ureido)-cyclohexyloxy)-benzoate]
pIC50 (Canine sEH): 7.42

O=C(Nc1ccc(Oc2ccc(C(=O)O)cc2)cc1)Nc1ccc(OC(F)(F)F)cc1 [compound 2803, 4-(4-(3-(4-(trifluoromethoxy)-phenyl)-ureido)-phenoxy)-benzoic acid]
pIC50 (Canine sEH): 7.38

O=C(Nc1ccc(OC(F)F)cc1)N[C@H]1CC[C@H](Oc2ccc(C(=O)O)cc2)CC1 [compound 2805, 4-(trans-4-(3-(4-(difluoromethoxy)-phenyl)-ureido)-cyclohexyloxy)-benzoic acid]
pIC50 (Canine sEH): 7.72

O=C(Nc1ccc(OC(F)(F)F)cc1)N[C@H]1CC[C@H](Oc2ccc(-c3nnn[nH]3)cc2)CC1 [compound 2806, 1-(trans-4-(4-(1H-tetrazol-5-yl)-phenoxy)-cyclohexyl)-3-(4-(trifluoromethoxy)-phenyl)-urea]
pIC50 (Canine sEH): > 9.00

O=C(Nc1ccc(OC(F)(F)F)cc1)Nc1ccc(Oc2ccc(C(=O)O)cc2)cc1F [compound 2807, 4-(3-fluoro-4-(3-(4-(trifluoromethoxy)-phenyl)-ureido)-phenoxy)-benzoic acid]
pIC50 (Canine sEH): 7.85

NCC1(CC(=O)O)CCCCC1 [gabapentin]
highest measured plasma concentration [3]: 18 µM

COc1ccc2c(c1)c(CC(=O)O)c(C)n2C(=O)c1ccc(Cl)cc1 [indomethacin]
COX-2 (IC50)/COX-1 (IC50) ratio (COX-1 and COX-2): 33
